According to patent US8541543B2, “Peptides specific for hepatocellular carcinoma cells and applications thereof” (Academia Sinica, priority 2007, dated 2013):

What was measured:
[1] = system: advanced HCC; details: HCC (ref 36); cited from earlier work
[2] = system: Mahlavu-derived HCC xenografts; test: In vivo peptide competitive inhibition of PC94 tumor binding; parameters: species or system SCID mice; details: 100 μg peptide co-injected with PC94, FIG. 3B
Description: (§1) SCID mice (4-6 weeks old) were injected subcutaneously (s.c.) into the dorsal-lateral flank with 5×10^6 Mahlavu cells. Mice bearing Mahlavu-derived xenografts (500 mm^3) were injected intravenously (i.v.) with 2×10^9 pfu of PC94 or control phage. After perfusion, the organs (brain, heart, and lungs) and tumor tissue were removed, washed with cold PBS and weighed. The phage bound to the tumor tissue and organs were rescued by Escherichia coli ER2738 culture. The eluted phage particles were titrated on LB/IPTG/X-Gal plates. In peptide competitive inhibition experiments, 2×10^9 pfu of PC94 phage was co-injected with 100 μg of SP94 peptide or the control peptide. The tissue distribution of targeting phages in the tumor-bearing mice was examined by immunohistochemical staining. The tissue sections were incubated with mouse anti-M13 antibody, followed by incubation with biotinylated horse anti-mouse antibody (ABC kit; Vector Laboratories, Burlingame, Calif., USA) and washed with PBS, then immersed with ABC reagent. The sections were immersed in DAB solution plus 0.01% hydrogen peroxide, washed with PBS and mounted with 50% glycerol in PBS.

[3] = system: Mahlavu-derived HCC xenografts; test: Immunohistochemical tissue distribution of targeting phages in tumor-bearing mice; format: in vivo, SCID mice; details: FIG. 3C, j
Description: as §1

## COc1cccc2c1C(=O)c1c(O)c3c(c(O)c1C2=O)C[C@@](O)(C(=O)CO)C[C@@H]3O[C@H]1C[C@H](N)[C@H](O)[C@H](C)O1 [doxorubicin]
[1]
  overall response rate: 18%

## FPWFPLPSPYGN [control peptide]
[2]
  inhibition of PC94 binding to tumor tissue: no such inhibitory effect

## SFSIIHTPILPL [SP94]
[3]
  immuno-reactivity of tumor tissue when PC94 co-injected with peptide: no immuno-reactivity was found in the tumor tissue
